Measured values published in patent US8198273B2, “Compounds and methods for kinase modulation, and indications therefor” (Plexxikon Inc., priority 2009, dated 2012).

Experiments:
[1] = system: A375 melanoma cells (B-Raf V600E); test: A375 cell growth inhibition (ATPlite); assay type: cell-based; conditions: Homo sapiens, A-375, 72 h; A375, 3 days incubation
Protocol: (§1) Compounds are assessed in a variety of cell based assays. For example human cell lines with B-Raf V600E mutation (A375 melanoma, SKMEL3 melanoma, and COL0205 colon adenocarcinoma), as well as tumorigenic cell lines with wild-type B-RAF (SW620 colon adenocarcinoma) or with Ras mutations (SKMEL2 melanoma and IPC298 melanoma). Similar assays may be used to assess additional tumorigenic cell lines with Ras mutations, including, but not limited to, M202, M207, M243, M244, M296, S117, HCT116, HCT15, DLD1, MiaPaCa, A549, NCI-H23, NCI-H460, HOP62, MDA-MB231, Hs-578T, HL60, MOLT-4, and CCRF-CEM.
(§2) On day 1, cells are counted, then centrifuged in a conical tube for 5 minutes at 1000 rpm. The supernatant is removed and cells are re-suspended as follows: • SW620 (ATCC catalog #CCL-27): resuspend in Leibovitz's L-15 medium, 2 mM L-glutamine, 10% fetal bovine serum to 6×10^4 cells/mL. • A375 (ATCC catalog #CRL-1619): resuspend in Dulbecco's modified Eagle's medium, 4 mM L-glutamine, 4.5 g/L D-glucose, 10% fetal bovine serum to 6×10^4 cells/mL. • COL0205 (ATCC catalog #CCL-222): resuspend in RPMI 1640, 2 mM L-glutamine, 1.5 g/L sodium bicarbonate, 4.5 g/L D-glucose, 10 mM HEPES, 1.0 mM sodium pyruvate, 10% fetal bovine serum to 6×10^4 cells/mL. • SKMEL2 (ATCC catalog #HTB-68): resuspend in Minimum Eagle essential medium, 2 mM L-glutamine, 1.5 g/L sodium bicarbonate, 0.1 mM non-essential amino acids, 1.0 mM sodium pyruvate, 10% fetal bovine serum to 6×10^4 cells/mL. • SKMEL3 (ATCC catalog #HTB-69): resuspend in McCoy's 5A medium, 1.5 mM L-glutamine, 15% fetal bovine serum to 6×10^4 cells/mL. • IPC298 (DSMZ catalog #ACC 251): resuspend in RPMI 1640, 2 mM L-glutamine, 10% fetal bovine serum to 6×10^4 cells/mL.
(§3) The cells are plated, 50 μL in each well of a 96-well dish (Corning 3610) and incubated at 37° C. in 5% CO2 overnight, cells plated to a final concentration of cells as follows:
(§4) On day 2, compound at a maximum concentration of 5 mM is serially diluted 1:3 for a total of 8 point titration with DMSO as a control. A 1 μL aliquot of each dilution point and control is added to 249 μL growth media and 50 μL is added to a well containing cells, providing 10 μM compound at the maximum concentration point. The cells are incubated for 3 days at 37° C. in 5% CO2.
(§5) On day 5, ATPlite 1 step Luminescence Assay System (Perkin Elmer #6016739) is brought to room temperature along with the cell cultures. ATPlite is added 25 μL to each well, shake for 2 minutes, and the cells are incubated at room temperature for 10 minutes, then luminescence is read on Safire reader. The measured luminescence correlates directly with cell number, such that the reading as a function of compound concentration is used to determine the IC50 value.
(§6) It is understood that the results of these assays may vary as assay conditions are varied. Inhibition levels determined under the conditions described herein represent a relative activity for the compounds tested under the specific conditions employed. The cell based assays are likely to show variability due to the complexity of the system and the sensitivity thereof to any changes in the assay conditions. […] Results for compounds that are tested and show substantially no inhibition below the highest tested concentration are represented as “-” in the tables below. In some instances, the compounds were not tested in all of the assays, or assay results were not valid, as indicated by NA in the tables below.

Colo205 xenograft = Colo205 xenograft mouse model, tumor growth inhibition; assay type: in vivo; conditions: COLO 205, 336 h, female nu/nu mice, 10 mg/kg daily for fourteen days
Protocol: Tumor growth is monitored to approximately 100 mg size, and mice are distributed to treatment groups such that the mean tumor burden within a group is within 10% of the overall mean tumor burden. […] Mice are observed daily, with tumor burden and body weights measured twice a week. Animals with tumor burden above 1500-2000 mg and any animals in moribund condition are euthanized. The average tumor growth of vehicle control group mice is compared to the average tumor growth of the test compound mice. Percent tumor growth inhibition is calculated as 100×[(tumor growth control-tumor growth test compound)/tumor growth control].

CYP3A4(BFC) = CYP3A4(BFC) (Homo sapiens, UniProt P08684); test: CYP3A4(BFC) inhibition (fluorescent substrate); assay type: in vitro ADME; conditions: read-out: Cyp IC50 3A4(BFC)
Protocol: (§7) CYP (Cytochrome P450) enzymes are the major drug metabolizing enzymes present in the liver. The inhibition of CYP enzyme activity (IC50) for each of CYP1A2, CYP2C19, CYP2C9, CYP2D6, CYP3A4(BFC) and CYP3A4(BQ) is determined for compounds, where inhibition of metabolism of a known substrate leads to a decrease in the fluorescence of the metabolized product. The fluorescence of the product is monitored as a function of compound concentration. Compounds are dissolved in dimethyl sulfoxide to a concentration of 100 mM. These are diluted 1 μL into 82 μL of acetonitrile. […] These are then serially diluted 1:1 (160 μL to 160 μL co-factor mix) for a total of 10 points. A 10 μL aliquot of this final mixture is dispensed into 384 well assay plates and incubated for 10 minutes at 37° C. […] Assay plates are incubated at 37° C. […] The signal versus compound concentration is used to determine the IC50. The enzymes and substrates for this assay are obtained from BD Biosciences.

[2] = system: COLO205 colon adenocarcinoma cells (B-Raf V600E); test: COLO205 cell growth inhibition (ATPlite); assay type: cell-based; conditions: Homo sapiens, COLO 205, 72 h; COLO205, 3 days incubation
Protocol: as §1, §2, §3, §4, §5, §6

[3] = system: SW620 colon adenocarcinoma cells (wild-type B-RAF); test: SW620 cell growth inhibition (ATPlite); assay type: cell-based; conditions: Homo sapiens, SW-620, 72 h; SW620, 3 days incubation
Protocol: as §1, §2, §3, §4, §5, §6

CYP3A4(BQ) = CYP3A4(BQ) (Homo sapiens, UniProt P08684); test: CYP3A4(BQ) inhibition (fluorescent substrate); assay type: in vitro ADME; conditions: read-out: Cyp IC50 3A4(BQ)
Protocol: as §7

[4] = Relative solubility by turbidity in aqueous buffers of varying pH; assay type: physicochemical
Protocol: As an indication of relative solubility, the turbidity of compounds in aqueous solutions is assessed. To assess possible compound properties in different physiological compartments, such as stomach, intestine, and blood, a series of aqueous buffers with varying pH is used. Thus each compound is diluted into four different physiologically relevant buffers and solution turbidity is measured by spectrophotometry.
Compounds are dissolved at a concentration of 25 mM in dimethyl sulfoxide, then serially diluted 1:1 into a 96 well plate, diluting 10 times in pure dimethyl sulfoxide, with the final well of each row a dimethyl sulfoxide blank. In an assay plate, 99 μL of appropriate buffer is added to each well, and 1 μL of each sample dilution is added to the buffer, achieving a range of final total concentrations in aqueous solutions having different pH. The buffers used are Simulated Gastric Fluid (SGF-pH 1.5) 0.5M NaCl, pH 1.5; Simulated Intestinal fluid (SIF-pH 4.5 and pH 6.8) 0.05M NaH2PO4, pH 4.5 and 6.8; and Hepes Buffer (HEPES-pH 7.4) 10 mM HEPES, 150 mM NaCl, pH 7.4. Control compounds pyrene, estriol and propranolol HCl are also assessed. Plates are spun and then mixed for 1 minute, and the absorbance is read using a Tecan Safire II to read wavelengths in the visible range (490, 535, and 650 nm) at four locations per well, reflecting the degree of turbidity present. The average optical density for each wavelength in each well is graphed vs. compound concentration, and the concentration at which the curve crosses a threshold O.D. of 0.01 for each wavelength is reported as the endpoint turbidity assay result. The average of the three wavelengths is used to compare turbidity of compounds. Compounds are considered to have low solubility if the threshold concentration is <31.3 04, moderate solubility if the threshold concentration is 31.3 μM to 250 μM, and high solubility if the threshold concentration is >250 μM.

[5] = system: SKMEL2 melanoma cells (Ras mutation); test: SKMEL2 cell growth inhibition (ATPlite); assay type: cell-based; conditions: Homo sapiens, SK-MEL-2, 72 h; SKMEL2, 3 days incubation
Protocol: as §1, §2, §3
SKMEL2: 2,000 cells per well.
as §4, §5, §6

Sequence of CYP3A4(BFC) (P08684 whole entry): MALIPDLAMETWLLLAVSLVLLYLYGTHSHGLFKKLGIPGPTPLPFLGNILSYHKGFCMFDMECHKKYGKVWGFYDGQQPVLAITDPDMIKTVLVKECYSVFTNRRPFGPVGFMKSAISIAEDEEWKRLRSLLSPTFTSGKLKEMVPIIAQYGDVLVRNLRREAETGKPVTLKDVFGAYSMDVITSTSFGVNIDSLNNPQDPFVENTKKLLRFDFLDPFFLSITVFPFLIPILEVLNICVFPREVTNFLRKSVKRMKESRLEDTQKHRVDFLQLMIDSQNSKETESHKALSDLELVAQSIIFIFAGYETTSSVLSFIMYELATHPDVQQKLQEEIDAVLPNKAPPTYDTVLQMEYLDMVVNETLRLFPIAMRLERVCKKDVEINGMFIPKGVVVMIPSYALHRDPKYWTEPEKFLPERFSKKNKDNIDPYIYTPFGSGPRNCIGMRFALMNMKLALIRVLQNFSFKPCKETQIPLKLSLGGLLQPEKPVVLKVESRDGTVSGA
Sequence of CYP3A4(BQ) (P08684 whole entry): as above

IC50 [1]: < 1 µM
IC50 (CYP3A4(BFC)): < 5 µM
IC50 [2]: < 1 µM
IC50 [3]: > 10 µM
IC50 (CYP3A4(BQ)): < 5 µM
IC50 [5]: > 10 µM
SMILES: O=C(c1c(F)ccc(NS(=O)(=O)c2cccnc2)c1F)c1c[nH]c2ncc(Cl)cc12 [P-2071, Pyridine-3-sulfonic acid [3-(5-chloro-1H-pyrrolo[2,3-b]pyridine-3-carbonyl)-2,4-difluoro-phenyl]-amide]
inhibition in vivo at 10 mg/kg (Colo205 xenograft): 59%
turbidity threshold (L, M, H) 7.4 ([4]; HEPES pH 7.4): M (moderate solubility if the threshold concentration is 31.3 μM to 250 μM)
turbidity threshold (L, M, H) 4.5 ([4]; SIF pH 4.5): M (moderate solubility if the threshold concentration is 31.3 μM to 250 μM)
turbidity threshold (L, M, H) 6.8 ([4]; SIF pH 6.8): M (moderate solubility if the threshold concentration is 31.3 μM to 250 μM)
turbidity threshold (L, M, H) 1.4 ([4]; buffer pH 1.4 (SGF)): M (moderate solubility if the threshold concentration is 31.3 μM to 250 μM)
